Experimental data taken from patent US7135466B2 (Kirin Beer Kabushiki Kaisha, priority 1999, dated 2006).
Read-outs that look alike come from different tables or passages of the source.

Key:
[1] = biological target: T1, c-kit (Homo sapiens, UniProt P10721); assay: Inhibitory activity against c-kit autophosphorylation (MO7e cells, h-SCF); assay type: cell-based; conditions: for IC50: MO7e cells, read-out: c-kit IC50; for inhibition at 1 µM: Mo7e, at 1000 nM
T1 construct: MO7e (human megakaryocytic leukemia cell line) which had been arrested for 20 hr; endogenous in cells; host or cells: MO7e human megakaryocytic leukemia cell line
How it was run: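 In this cellular autophosphorylation assay, compound-treated MO7e cells (1 hr) were challenged with human stem cell factor at 50 ng/ml for 5 min; detection relied on PY-20 capture and anti-c-kit/HRP immunodetection at 450 nm.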

[2] = biological target: T2, PDGF-Ra (Homo sapiens, UniProt P16234); assay: Inhibitory activity against PDGF-Ra phosphorylation by PDGF-AA stimulation using G292; assay type: cell-based; conditions: for IC50: > means inhibition at indicated concentration not more than 50%, < and << not less than 50%, read-out: PDGF (E) IC50; for inhibition at 0.1 µM: G292, at 100 nM, read-out: PDGF (E) inhibition (%) at 100 nM
T2 construct: host or cells: G-292 human osteosarcoma cells
How it was run: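 Phosphorylated PDGF-Ra was measured colorimetrically (450 nm) after tyrosine-phosphorylated proteins from G-292 lysates were bound to PY-20-coated wells and detected with anti-PDGF-Ra antibody. Compound preincubation lasted 1 hr, followed by 50 ng/ml PDGF-AA for 5 min.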

[3] = figure in parentheses in >100( )
[4] = figure within parentheses in −( ) or >1000( )

T2 sequence (P16234 24-1089): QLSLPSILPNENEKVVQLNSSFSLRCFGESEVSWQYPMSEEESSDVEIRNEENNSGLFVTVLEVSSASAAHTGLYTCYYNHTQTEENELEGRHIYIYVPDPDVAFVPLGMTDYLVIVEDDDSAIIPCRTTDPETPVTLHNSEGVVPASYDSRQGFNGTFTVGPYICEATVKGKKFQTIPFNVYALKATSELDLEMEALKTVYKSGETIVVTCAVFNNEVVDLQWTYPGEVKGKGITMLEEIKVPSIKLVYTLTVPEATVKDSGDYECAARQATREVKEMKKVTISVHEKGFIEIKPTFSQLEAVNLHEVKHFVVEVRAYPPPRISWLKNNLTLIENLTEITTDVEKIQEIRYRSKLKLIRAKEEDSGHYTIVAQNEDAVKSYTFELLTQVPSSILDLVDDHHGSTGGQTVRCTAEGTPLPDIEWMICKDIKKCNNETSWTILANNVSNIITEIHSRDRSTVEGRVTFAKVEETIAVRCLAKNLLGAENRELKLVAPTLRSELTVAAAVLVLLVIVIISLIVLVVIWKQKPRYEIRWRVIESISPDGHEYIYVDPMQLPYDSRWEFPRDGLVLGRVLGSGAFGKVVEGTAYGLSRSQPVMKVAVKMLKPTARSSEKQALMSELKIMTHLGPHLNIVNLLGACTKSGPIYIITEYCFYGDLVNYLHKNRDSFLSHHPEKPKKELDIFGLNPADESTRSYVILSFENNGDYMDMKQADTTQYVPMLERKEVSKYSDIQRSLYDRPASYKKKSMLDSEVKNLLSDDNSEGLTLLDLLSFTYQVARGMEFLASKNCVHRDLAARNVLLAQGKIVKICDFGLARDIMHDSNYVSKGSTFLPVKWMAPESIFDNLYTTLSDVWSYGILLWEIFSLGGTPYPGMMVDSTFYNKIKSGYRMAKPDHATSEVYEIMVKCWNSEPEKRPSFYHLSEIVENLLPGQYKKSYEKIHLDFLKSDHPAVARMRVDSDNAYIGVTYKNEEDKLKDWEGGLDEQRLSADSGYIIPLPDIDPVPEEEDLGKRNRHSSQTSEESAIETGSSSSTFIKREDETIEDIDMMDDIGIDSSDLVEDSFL
T1 sequence (P10721 26-976): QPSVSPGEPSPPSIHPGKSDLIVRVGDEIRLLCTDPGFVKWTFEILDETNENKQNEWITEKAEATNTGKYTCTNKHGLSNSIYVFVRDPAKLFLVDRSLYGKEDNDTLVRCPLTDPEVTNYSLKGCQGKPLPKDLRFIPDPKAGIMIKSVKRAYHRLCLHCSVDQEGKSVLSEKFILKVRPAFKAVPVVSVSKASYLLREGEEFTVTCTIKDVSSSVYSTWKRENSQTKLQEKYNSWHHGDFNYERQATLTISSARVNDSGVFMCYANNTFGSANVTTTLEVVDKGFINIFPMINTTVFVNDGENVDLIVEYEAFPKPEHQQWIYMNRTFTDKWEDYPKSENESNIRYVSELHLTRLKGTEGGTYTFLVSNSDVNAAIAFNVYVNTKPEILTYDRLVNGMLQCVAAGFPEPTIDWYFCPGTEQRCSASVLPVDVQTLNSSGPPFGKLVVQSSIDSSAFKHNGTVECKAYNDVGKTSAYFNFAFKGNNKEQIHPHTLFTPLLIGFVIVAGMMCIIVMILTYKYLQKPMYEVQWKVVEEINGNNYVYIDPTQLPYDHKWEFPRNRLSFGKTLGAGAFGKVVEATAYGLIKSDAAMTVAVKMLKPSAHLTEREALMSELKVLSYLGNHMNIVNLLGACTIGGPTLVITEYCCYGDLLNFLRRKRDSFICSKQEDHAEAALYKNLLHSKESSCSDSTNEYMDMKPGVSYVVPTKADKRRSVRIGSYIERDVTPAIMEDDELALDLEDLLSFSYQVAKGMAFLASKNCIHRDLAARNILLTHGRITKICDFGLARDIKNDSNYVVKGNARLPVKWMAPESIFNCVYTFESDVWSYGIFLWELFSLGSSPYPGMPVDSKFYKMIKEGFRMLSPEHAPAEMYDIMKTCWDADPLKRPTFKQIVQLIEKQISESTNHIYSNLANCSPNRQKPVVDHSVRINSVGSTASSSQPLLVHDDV

`COc1cc2ncnc(Oc3ccc(NC(=S)NC(=O)c4ccccc4C)cc3)c2cc1OC` [Example 927, N-{4-[(6,7-Dimethoxy-4-quinazolinyl)oxy]phenyl}-N′-(2-methylbenzoyl)thiourea] showed an IC50 ([1]; h-SCF stimulation) of 623 nM and an IC50 [2] of 5 nM.

`COc1cc2nccc(Oc3ccc(NC(=S)NC(=O)c4ccc5c(c4)OCO5)cc3Cl)c2cc1OC` [Example 1126, N-(1,3-Benzodioxol-5-ylcarbonyl)-N′-{3-chloro-4-[(6,7-dimethoxy-4-quinolyl)oxy]phenyl}thiourea] gave an inhibition at 1 µM ([1]; figure in parentheses in −( )) of 35%, an IC50 [2] of over 100 nM and an inhibition at 0.1 µM [2, 3] of 70%.

`COc1cc2nccc(Oc3ccc(NC(=O)Oc4ccccc4OC)c(C)c3C)c2cc1OC` [Example 279, 2-Methoxyphenyl N-{4-[(6,7-dimethoxy-4-quinolyl)oxy]-2,3-dimethylphenyl}carbamate] showed an IC50 ([1]; h-SCF 50 ng/ml) of under 30 nM and an IC50 ([2]; Pharmacological Test Example 1) of under 10 nM.

With `CCCCOc1ccc(C(=O)NC(=S)Nc2ccc(Oc3ccnc4cc(OC)c(OC)cc34)cc2)cc1` [Example 751, N-(4-Butoxybenzoyl)-N′-{4-[(6,7-dimethoxy-4-quinolyl)oxy]phenyl}thiourea] the inhibition at 1 µM [1, 4] was 23% and the IC50 [2] was 70 nM.

In the case of `COc1cc2nccc(Oc3ccc(NC(=O)OC(C)c4cccc(Cl)c4)c(C)c3C)c2cc1OC` (stereo not shown) [Example 4, 1-(3-Chlorophenyl)ethyl N-{4-[(6,7-dimethoxy-4-quinolyl)oxy]-2,3-dimethylphenyl}carbamate], the IC50 ([1]; h-SCF 50 ng/ml) is reported as 133 nM and the IC50 ([2]; Pharmacological Test Example 1) is reported as under 10 nM.

Compound `COc1cccc(OCCCOc2ccc(Oc3ccnc4cc(OC)c(OC)cc34)cc2)c1` [Example 793, 6,7-Dimethoxy-4-{4-[3-(3-methoxyphenoxy)propoxy]phenoxy}quinoline] has an IC50 ([1]; 50 ng/ml h-SCF) of 335 nM and an IC50 [2] of 6 nM.

`COc1cc2nccc(Oc3ccc(NC(=O)OC4CCOCC4)cc3)c2cc1OC` [Example 470, Tetrahydro-2H-4-pyranyl N-{4-[(6,7-dimethoxy-4-quinolyl)oxy]phenyl}carbamate] gave an IC50 ([1]; 50 ng/ml h-SCF) of 128 nM and an IC50 [2] of 26 nM.

In the case of `COc1cc2nccc(Oc3ccc(NC(=O)OCCCOc4cccc(F)c4)c(C)c3C)c2cc1OC` [Example 148, 3-(3-Fluorophenoxy)propyl N-{4-[(6,7-dimethoxy-4-quinolyl)oxy]-2,3-dimethylphenyl}carbamate], the IC50 ([1]; h-SCF 50 ng/ml) is reported as under 30 nM and the IC50 ([2]; Pharmacological Test Example 1) is reported as under 10 nM.

For `COc1cc2nccc(Oc3ccc(NC(=O)Oc4c(C)cccc4C)cc3)c2cc1OC` [Example 269, 2,6-Dimethylphenyl N-{4-[(6,7-dimethoxy-4-quinolyl)oxy]phenyl}carbamate], the inhibition at 1 µM ([1]; figure in parentheses in −( )) was 48% and the IC50 ([2]; Pharmacological Test Example 1) was 17 nM.

`COc1cc2nccc(Oc3cc(C)c(NC(=O)OC(C)c4ccccc4F)cc3C)c2cc1OC` (stereo not shown) [Example 124, 1-(2-Fluorophenyl)ethyl N-{4-[(6,7-dimethoxy-4-quinolyl)oxy]-2,5-dimethylphenyl}carbamate] was tested, and the inhibition at 1 µM ([1]; figure in parentheses in −( )) was 39% and the IC50 ([2]; Pharmacological Test Example 1) was 42 nM.

`CCN(CC)CCOc1ccc(Oc2ncnc3cc(OC)c(OC)cc23)cc1` [Example 807, N-(2-{4-[(6,7-Dimethoxy-4-quinazolinyl)oxy]phenoxy}ethyl)-N,N-diethylamine] gave an inhibition at 1 µM [1, 4] of 20%, an IC50 [2] of over 100 nM and an inhibition at 0.1 µM ([2]; figure within parentheses in >100( )) of 20%.

In the case of `COc1cc2nccc(Oc3ccc(NC(=S)NC(=O)N4c5ccccc5CCc5ccccc54)cc3Cl)c2cc1OC` [Example 1054, N-{3-Chloro-4-[(6,7-dimethoxy-4-quinolyl)oxy]phenyl}-N′-[10,11-dihydro-5H-dibenzo(b,f)azepin-5-ylcarbonyl]thiourea], the inhibition at 1 µM ([1]; figure in parentheses in −( )) is reported as 19% and the IC50 [2] is reported as 27 nM.

For `COc1cc2nccc(Oc3ccc(NC(=O)OC(C)c4ccccc4F)c(C)c3C)c2cc1OC` (stereo not shown) [Example 123, 1-(2-Fluorophenyl)ethyl N-{4-[(6,7-dimethoxy-4-quinolyl)oxy]-2,3-dimethylphenyl}carbamate], the IC50 ([1]; h-SCF 50 ng/ml) was 207 nM and the IC50 ([2]; Pharmacological Test Example 1) was under 10 nM.

`COc1cc2ncnc(Oc3ccc(NC(=O)OCc4ccccc4C)cc3)c2cc1OC` [Example 319, 2-Methylbenzyl N-{4-[(6,7-dimethoxy-4-quinazolinyl)oxy]phenyl}carbamate] was tested, and the IC50 ([1]; h-SCF 50 ng/ml) was 98 nM and the IC50 ([2]; Pharmacological Test Example 1) was under 10 nM.

`CCCCC(CC)OC(=O)Nc1ccc(Oc2ccnc3cc(OC)c(OC)cc23)c(C)c1C` (stereo not shown) [Example 331, 1-Ethylpentyl N-{4-[(6,7-dimethoxy-4-quinolyl)oxy]-2,3-dimethylphenyl}carbamate] showed an IC50 ([1]; h-SCF 50 ng/ml) of 377 nM and an IC50 ([2]; Pharmacological Test Example 1) of under 10 nM.

Work on `COc1ccc(COC(=O)Nc2ccc(Oc3ccnc4cc(OC)c(OC)cc34)c(C)c2C)cc1OC` [Example 63, 3,4-Dimethoxybenzyl N-{4-[(6,7-dimethoxy-4-quinolyl)oxy]-2,3-dimethylphenyl}carbamate] yielded an IC50 ([1]; h-SCF 50 ng/ml) of 211 nM and an IC50 ([2]; Pharmacological Test Example 1) of 16 nM.

`CCCCCC(=O)NC(=S)Nc1ccc(Oc2ncnc3cc(OC)c(OC)cc23)cc1` [Example 1189, N-{4-[(6,7-Dimethoxy-4-quinazolinyl)oxy]phenyl}-N′-hexanoylthiourea] showed an IC50 ([1]; h-SCF stimulation) of 73 nM and an IC50 [2] of 26 nM.

For `CCN(CCNC(=S)Nc1ccc(Oc2ncnc3cc(OC)c(OC)cc23)cc1)c1ccccc1C` [Example 528], the IC50 ([1]; 50 ng/ml h-SCF) was 343 nM and the IC50 [2] was 33 nM.

Compound `COc1cc(Oc2ncnc3cc(OC)c(OC)cc23)ccc1NC(=O)NCCN1CCOCC1` [Example 631, N-{4-[(6,7-Dimethoxy-4-quinazolinyl)oxy]-2-methoxyphenyl}-N′-(2-morpholinoethyl)urea] has an IC50 ([1]; 50 ng/ml h-SCF) of 186 nM and an IC50 [2] of 39 nM.

`CCCC(CCN(CC)CC)OC(=O)Nc1ccc(Oc2ccnc3cc(OC)c(OC)cc23)c(C)c1C` (stereo not shown) [Example 443, 1-[2-(Diethylamino)ethyl]butyl N-{4-[(6,7-dimethoxy-4-quinolyl)oxy]-2,3-dimethylphenyl}carbamate] showed an IC50 ([1]; 50 ng/ml h-SCF) of 627 nM and an IC50 [2] of 15 nM.

`COc1cc2nccc(Oc3ccc(NC(=S)NC(=O)c4ccc(C)s4)cc3)c2cc1OC` [Example 1146, N-{4-[(6,7-Dimethoxy-4-quinolyl)oxy]phenyl}-N′-[(5-methyl-2-thienyl)carbonyl]thiourea] gave an IC50 ([1]; h-SCF stimulation) of 552 nM and an IC50 [2] of 23 nM.

With `CCN(CCNC(=O)Nc1ccc(Oc2ncnc3cc(OC)c(OC)cc23)cc1[N+](=O)[O-])c1cccc(C)c1` [Example 667, N-{4-[(6,7-Dimethoxy-4-quinazolinyl)oxy]-2-nitrophenyl}-N′-[2-(ethyl-3-methylanilino)ethyl]urea] the IC50 ([1]; 50 ng/ml h-SCF) was 100 nM and the IC50 [2] was under 10 nM.

In the case of `COc1cc2ncnc(Oc3ccc(NC(=S)NC(=O)C4CC4C)cc3)c2cc1OC` (stereo not shown) [Example 1191, N-{4-[(6,7-Dimethoxy-4-quinazolinyl)oxy]phenyl}-N′-[(2-methylcyclopropyl)carbonyl]thiourea], the IC50 ([1]; h-SCF stimulation) is reported as 193 nM and the IC50 [2] is reported as 31 nM.

With `COc1cc2ncnc(Oc3ccc(NC(=O)OCC4CCCCCC4)c([N+](=O)[O-])c3)c2cc1OC` [Example 506, Cycloheptylmethyl N-{4-[(6,7-dimethoxy-4-quinazolinyl)oxy]-2-nitrophenyl}carbamate] the IC50 ([1]; 50 ng/ml h-SCF) was 369 nM and the IC50 [2] was 74 nM.

With `CCCC(CCN1CCOCC1)OC(=O)Nc1ccc(Oc2ccnc3cc(OC)c(OC)cc23)c(C)c1C` (stereo not shown) [Example 439, 1-(2-Morpholinoethyl)butyl N-{4-[(6,7-dimethoxy-4-quinolyl)oxy]-2,3-dimethylphenyl}carbamate] the IC50 ([1]; 50 ng/ml h-SCF) was 224 nM and the IC50 [2] was 52 nM.

Work on `COc1cc2nccc(Oc3ccc(NC(=S)NC(=O)N4CCCC4)cc3)c2cc1OC` [Example 1044, N-{4-[(6,7-Dimethoxy-4-quinolyl)oxy]phenyl}-N′-tetrahydro-1H-1-pyrrolylcarbonylthiourea] yielded an IC50 ([1]; h-SCF stimulation) of 136 nM and an IC50 [2] of under 10 nM.

Work on `COc1cc2nccc(Oc3ccc(NC(=O)OCCCOc4ccc(Cl)cc4)cc3)c2cc1OC` [Example 27, 3-(4-Chlorophenoxy)propyl N-{4-[(6,7-dimethoxy-4-quinolyl)oxy]phenyl}carbamate] yielded an IC50 ([1]; h-SCF 50 ng/ml) of 76 nM and an IC50 ([2]; Pharmacological Test Example 1) of under 10 nM.

With `COc1cc2ncnc(Oc3ccc(NC(=O)NCCN(C(C)C)C(C)C)c(Cl)c3)c2cc1OC` [Example 657, N-{2-Chloro-4-[(6,7-dimethoxy-4-quinazolinyl)oxy]phenyl}-N′-[2-(diisopropylamino)ethyl]urea] the inhibition at 1 µM [1, 4] was 27% and the IC50 [2] was 40 nM.

`C=C(C)COC(=O)Nc1ccc(Oc2ccnc3cc(OC)c(OC)cc23)cc1` [Example 404, 2-Methylallyl N-{4-[(6,7-dimethoxy-4-quinolyl)oxy]phenyl}carbamate] showed an IC50 ([1]; 50 ng/ml h-SCF) of 81 nM and an IC50 [2] of under 10 nM.

`CCCCCCCCCCCCCCCCCCOC(=O)Nc1ccc(Oc2ccnc3cc(OC)c(OC)cc23)cc1` [Example 326, Octadecyl N-{4-[(6,7-dimethoxy-4-quinolyl)oxy]phenyl}carbamate] gave an inhibition at 1 µM ([1]; figure in parentheses in −( )) of 18%, an inhibition at 0.1 µM [2, 3] of 31% and an IC50 ([2]; Pharmacological Test Example 1) of over 100 nM.

For `COc1cc2ncnc(Oc3ccc(NC(=O)N[C@H]4CCN(Cc5ccccc5)C4)c(Cl)c3)c2cc1OC` [Example 576, N-[(3S)-1-Benzyltetrahydro-1H-3-pyrrolyl]-N′-{2-chloro-4-[(6,7-dimethoxy-4-quinazolinyl)oxy]phenyl}urea], the IC50 ([1]; 50 ng/ml h-SCF) was 151 nM and the IC50 [2] was 36 nM.

`COc1cc2nccc(Oc3cc(C)c(NC(=O)OCCCOc4ccc(Cl)cc4)cc3C)c2cc1OC` [Example 29, 3-(4-Chlorophenoxy)propyl N-{4-[(6,7-dimethoxy-4-quinolyl)oxy]-2,5-dimethylphenyl}carbamate] gave an IC50 ([1]; h-SCF 50 ng/ml) of 121 nM and an IC50 ([2]; Pharmacological Test Example 1) of 27 nM.
